Measured values published in US6506555B1, “Use of HIV protease inhibiting compounds” (Institut National de la Sante et de la Recherche Medicale …, priority 1998, dated 2003).
Structures can show the parent of a compound that is named as a salt. Where two headings read alike, the source gives them in different places.

Tests used:
cytotoxic T lymphocytes [1] = assay type: in vivo, C57BL/6 mice; conditions: for swelling of the footpad after injection of LCMV: mice infected in the footpad with LCMV-WE, swelling after seven to eight days
cytotoxic T lymphocytes [2] = assay type: in vivo, C57BL/6 mice; conditions: splenocytes eight days after i.v. LCMV-WE; EL4 cells sensitized with GP33-41 or NP peptide
[3] = target: T1, 20S proteasomes isolated from murine B8 fibroblasts (Mus musculus, UniProt O55234+P70195+Q60692); experiment: Hydrolysis of fluorogenic substrates by isolated 20S proteasomes; assay type: biochemical; conditions: for "chimotrypsin-like" activity (hydrolysis of Suc-LLVY-MCA), comparison of four HIV-1 protease inhibitors: different batch of purified proteasomes, increasing concentrations
T1 construct: 20S proteasomes isolated from murine B8 fibroblasts; endogenous in cells; host or cells: murine B8 fibroblasts; 20S proteasome purified from the cells
Protocol: FIGS. 4B, 4C and 4D show the hydrolysis of the fluorogenic substrate (100 μM Suc-LLVY-MCA, 100 μM (Z)-GGL-MCA and 400 μM Bz-VGR-MCA) of the 20S proteasomes isolated from murine B8 fibroblasts, as a function of variable concentrations of ritonavir and of LLnL (N-acetyl-L-leucinyl-L-leucinal-L-norleucinal, known inhibitor of the proteasome). The results are reported for one hour of digestion with the 20S proteasome (500 ng) in a final volume of 100 μl. The values were located in a linear detection domain and are the mean values of triplicates with standard errors of less than 3%.
The hydrolysis of Suc-LLVY-MCA by the 20S murine proteasomes was tested according to the method described in Example 4.2. under identical conditions except for the fact that a different batch of purified proteasomes was used. The hydrolysis of Suc-LLVY-MCA was measured in the presence of increasing concentrations of ritonavir, nelfinavir (Roche), saquinavir (mesylate) and indinavir (active ingredient of Crixivan® marketed by Merck and Sharp and Dohme). The HIV protease inhibitors were dissolved beforehand in ethanol, methanol, DMSO and water respectively, for use in vitro (FIG. 4E).

[4] = patients with hepatic cytolysis (cytolysis +)
[5] = patients without hepatic cytolysis (cytolysis −)
[6] = 100 μM substrate, one hour digestion, 500 ng 20S proteasome

**Q.** How did the “swelling of the footpad after injection of LCMV” value (cytotoxic T lymphocytes [1]) turn out when `CC(C)(C)NC(=O)[C@@H]1CN(Cc2cccnc2)CCN1C[C@@H](O)C[C@@H](Cc1ccccc1)C(=O)N[C@H]1c2ccccc2C[C@H]1O` [indinavir] was run?
**A.** Its value is “not inhibited”.

**Q.** What about the “lysis of the target cells (direct lysis ex vivo after systemic infection)” value (cytotoxic T lymphocytes [2]) of the same molecule?
**A.** The value was “not inhibited”.

**Q.** And the “"chimotrypsin-like" activity (hydrolysis of Suc-LLVY-MCA), comparison of four HIV-1 protease inhibitors” value [3]?
**A.** Its value is “no inhibition”.

**Q.** What about the anti-HCV antibody titre (HCV; during the therapy) of the same molecule?
**A.** Its anti-HCV antibody titre is “No increase”.

**Q.** What about the “patients in whom the ALAT concentrations increased” value (HCV; patients coinfected with HCV and HIV) of the same molecule?
**A.** Its value is 10%.

**Q.** What about the “Ac index (variation of anti-HCV antibody titre, ratio of the optical densities)” value (HCV; [4]) of the same molecule?
**A.** The value was 0.98.

**Q.** What about the “variation of CD4” value (HCV; [4]) of the same molecule?
**A.** The value was 29.5 cells /mm^3.

**Q.** And the “variation of CD8” value (HCV; [4])?
**A.** The value was 203.5 cells /mm^3.

**Q.** And the “variation of HCV-VL (viral HCV load)” value (HCV; [4])?
**A.** The value was 2.25 log10 of copies of RNA/ml.

**Q.** And the “Ac index (variation of anti-HCV antibody titre, ratio of the optical densities)” value (HCV; [5])?
**A.** The value was 1.01(+/−0.13).

**Q.** And the “variation of CD4” value (HCV; [5])?
**A.** Its value is 21.1(+/−68) cells /mm^3.

**Q.** And the “variation of CD8” value (HCV; [5])?
**A.** Its value is 9.2(+/−222) cells /mm^3.

**Q.** And the “variation of HCV-VL (viral HCV load)” value (HCV; [5])?
**A.** The value was “+0.41 log10 of copies of RNA/ml”.

**Q.** And the “variation of HCV-VL (viral HCV load)” value (HCV; patients without hepatic cytolysis (cytolysis −), listed as IDN)?
**A.** The value was 0.41(+/−0.79) log10 of copies of RNA/ml.

**Q.** Which “"chimotrypsin-like" activity (hydrolysis of Suc-LLVY-MCA), comparison of four HIV-1 protease inhibitors” value [3] does the source give for `CC(C)(C)NC(=O)[C@@H]1C[C@@H]2CCCC[C@@H]2CN1C[C@@H](O)[C@H](Cc1ccccc1)NC(=O)[C@H](CC(N)=O)NC(=O)c1ccc2ccccc2n1` [saquinavir mesylate] here?
**A.** The value was “inhibits”.

**Q.** Which “hydrolysis of the fluorogenic substrate Suc-LLVY-MCA” value [3, 6] does the source give for “N-acetyl-L-leucinyl-L-leucinal-L-norleucinal [LLnL]” here?
**A.** The value was “inhibits in a similar manner”.

**Q.** What about the “hydrolysis of the substrate (Z)-GGL-MCA” value [3, 6] of the same molecule?
**A.** Its value is “inhibits in a similar manner”.

**Q.** What about the “cleavage of the substrate Bz-VGR-MCA ("trypsin" type activity)” value ([3]; 400 μM substrate, one hour digestion, 500 ng 20S proteasome) of the same molecule?
**A.** The value was “inhibits in a similar manner”.

**Q.** `CC(C)(C)NC(=O)[C@@H]1C[C@@H]2CCCC[C@@H]2CN1C[C@@H](O)[C@H](Cc1ccccc1)NC(=O)[C@H](CC(N)=O)NC(=O)c1ccc2ccccc2n1` [saquinavir] was tested. Which “inhibition of the swelling of the footpads” value (cytotoxic T lymphocytes [1]; 7th day after the treatment, oral dose of 4 mg per day) did it give?
**A.** Its value is “up to 73%”.

**Q.** What about the “"chymotrypsin-like" activity of the proteasome” value ([3]; summary statement) of the same molecule?
**A.** The value was “inhibited”.

**Q.** What about the “"trypsin" activity of the proteasome” value ([3]; summary statement) of the same molecule?
**A.** Its value is “increased”.

**Q.** For `Cc1c(O)cccc1C(=O)N[C@@H](CSc1ccccc1)[C@H](O)CN1C[C@H]2CCCC[C@H]2C[C@H]1C(=O)NC(C)(C)C` [nelfinavir], which “swelling of the footpad after injection of LCMV” value (cytotoxic T lymphocytes [1]) is on record?
**A.** The value was “not inhibited”.

**Q.** What about the “lysis of the target cells (direct lysis ex vivo after systemic infection)” value (cytotoxic T lymphocytes [2]) of the same molecule?
**A.** Its value is “not inhibited”.

**Q.** What about the “"chimotrypsin-like" activity (hydrolysis of Suc-LLVY-MCA), comparison of four HIV-1 protease inhibitors” value [3] of the same molecule?
**A.** The value was “no inhibition”.
